Measured values from ChEMBL document CHEMBL5357068, “Discovery of Novel TLR7 Agonists as Systemic Agent for Combination With aPD1 for Use in Immuno-oncology” (ACS Med Chem Lett, 2024).
Active and inactive are the calls of the source. The rule behind the calls is not given here.

Tests used:
[1] = Metabolic stability in human liver microsomes assessed as compound remaining; type: ADME, Microsome; also: time not given here
[2] = molecular target: Voltage-gated inwardly rectifying potassium channel KCNH2 (Homo sapiens, UniProt Q12809); assay: Inhibition of hERG by patch clamp assay; type: toxicity
[3] = Metabolic stability in mouse liver microsomes assessed as compound remaining; type: ADME, Microsome; also: time not given here
in vitro = conditions: PHA-activated T cells
Toll-like receptor 7 [4] = molecular target: T1, Toll-like receptor 7 (Mus musculus, UniProt P58681)
T1 sequence (P58681 whole entry): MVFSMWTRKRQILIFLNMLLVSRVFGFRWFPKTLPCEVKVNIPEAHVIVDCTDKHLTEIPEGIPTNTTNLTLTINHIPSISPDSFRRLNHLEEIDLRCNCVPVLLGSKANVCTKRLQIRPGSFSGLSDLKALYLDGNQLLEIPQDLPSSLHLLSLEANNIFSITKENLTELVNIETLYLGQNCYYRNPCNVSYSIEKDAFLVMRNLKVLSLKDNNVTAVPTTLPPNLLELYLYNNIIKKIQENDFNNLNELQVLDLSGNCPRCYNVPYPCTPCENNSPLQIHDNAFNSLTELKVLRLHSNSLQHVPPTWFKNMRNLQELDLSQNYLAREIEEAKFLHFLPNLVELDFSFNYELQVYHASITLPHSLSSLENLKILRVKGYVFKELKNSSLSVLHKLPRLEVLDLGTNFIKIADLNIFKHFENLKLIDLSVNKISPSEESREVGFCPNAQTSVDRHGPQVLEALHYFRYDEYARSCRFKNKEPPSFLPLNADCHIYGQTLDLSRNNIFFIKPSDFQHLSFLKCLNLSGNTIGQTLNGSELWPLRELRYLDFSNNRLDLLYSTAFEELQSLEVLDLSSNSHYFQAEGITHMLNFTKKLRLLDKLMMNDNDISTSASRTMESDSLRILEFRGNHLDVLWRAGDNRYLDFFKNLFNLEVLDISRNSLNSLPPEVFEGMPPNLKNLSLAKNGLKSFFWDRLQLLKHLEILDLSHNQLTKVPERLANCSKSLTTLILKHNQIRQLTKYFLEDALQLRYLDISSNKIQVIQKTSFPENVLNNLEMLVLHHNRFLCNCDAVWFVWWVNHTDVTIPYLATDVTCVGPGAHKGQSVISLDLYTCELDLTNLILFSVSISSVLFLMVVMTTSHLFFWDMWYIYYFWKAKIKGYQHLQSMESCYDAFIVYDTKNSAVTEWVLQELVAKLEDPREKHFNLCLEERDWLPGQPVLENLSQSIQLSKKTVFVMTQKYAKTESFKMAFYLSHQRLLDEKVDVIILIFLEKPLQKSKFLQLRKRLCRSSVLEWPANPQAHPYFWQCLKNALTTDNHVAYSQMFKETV

Toll-like receptor 7 [5] = molecular target: T1, Toll-like receptor 7; assay: Agonist activity at mouse TLR7
Cytochrome P450 3A4 = Cytochrome P450 3A4 (Homo sapiens, UniProt P08684); assay: Inhibition of CYP3A4 (unknown origin) using 7-benzyloxy-4-(trifluoromethyl)-coumarin as substrate preincubated with compound followed by substrate addition at 30 mins; type: ADME
Toll-like receptor 8 = molecular target: T2, Toll-like receptor 8 (Homo sapiens, UniProt Q9NR97); assay: Agonist activity at human TLR8
T2 sequence (Q9NR97 whole entry): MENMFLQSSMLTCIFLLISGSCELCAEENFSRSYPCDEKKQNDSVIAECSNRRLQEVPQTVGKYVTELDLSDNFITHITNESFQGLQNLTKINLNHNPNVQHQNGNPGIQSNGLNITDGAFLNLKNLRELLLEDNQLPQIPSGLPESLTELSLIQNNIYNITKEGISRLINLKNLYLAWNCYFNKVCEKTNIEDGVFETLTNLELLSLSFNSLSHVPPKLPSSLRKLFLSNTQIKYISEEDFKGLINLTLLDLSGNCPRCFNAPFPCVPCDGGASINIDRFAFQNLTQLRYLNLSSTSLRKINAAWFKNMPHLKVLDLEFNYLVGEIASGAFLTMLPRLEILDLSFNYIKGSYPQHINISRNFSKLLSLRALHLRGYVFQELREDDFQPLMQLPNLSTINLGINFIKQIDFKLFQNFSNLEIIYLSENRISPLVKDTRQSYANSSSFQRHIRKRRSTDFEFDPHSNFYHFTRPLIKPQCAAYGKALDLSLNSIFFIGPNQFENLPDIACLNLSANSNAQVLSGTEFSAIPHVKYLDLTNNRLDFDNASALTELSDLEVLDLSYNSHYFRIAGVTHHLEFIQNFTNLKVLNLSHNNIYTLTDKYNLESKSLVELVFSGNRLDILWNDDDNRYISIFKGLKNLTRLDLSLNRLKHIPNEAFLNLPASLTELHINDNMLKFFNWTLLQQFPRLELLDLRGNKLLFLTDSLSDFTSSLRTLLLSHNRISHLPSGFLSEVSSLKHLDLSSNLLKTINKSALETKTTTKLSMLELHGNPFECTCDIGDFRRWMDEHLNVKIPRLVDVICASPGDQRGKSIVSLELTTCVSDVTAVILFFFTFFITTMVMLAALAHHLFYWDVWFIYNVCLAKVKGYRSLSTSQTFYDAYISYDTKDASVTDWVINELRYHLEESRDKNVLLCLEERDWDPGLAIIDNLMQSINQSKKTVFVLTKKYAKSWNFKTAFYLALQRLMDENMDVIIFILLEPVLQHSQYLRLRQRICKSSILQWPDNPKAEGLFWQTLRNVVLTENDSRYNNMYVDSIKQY

Toll-like receptor 7 [6] = molecular target: T3, Toll-like receptor 7 (Homo sapiens, UniProt Q9NYK1)
T3 sequence (Q9NYK1 whole entry): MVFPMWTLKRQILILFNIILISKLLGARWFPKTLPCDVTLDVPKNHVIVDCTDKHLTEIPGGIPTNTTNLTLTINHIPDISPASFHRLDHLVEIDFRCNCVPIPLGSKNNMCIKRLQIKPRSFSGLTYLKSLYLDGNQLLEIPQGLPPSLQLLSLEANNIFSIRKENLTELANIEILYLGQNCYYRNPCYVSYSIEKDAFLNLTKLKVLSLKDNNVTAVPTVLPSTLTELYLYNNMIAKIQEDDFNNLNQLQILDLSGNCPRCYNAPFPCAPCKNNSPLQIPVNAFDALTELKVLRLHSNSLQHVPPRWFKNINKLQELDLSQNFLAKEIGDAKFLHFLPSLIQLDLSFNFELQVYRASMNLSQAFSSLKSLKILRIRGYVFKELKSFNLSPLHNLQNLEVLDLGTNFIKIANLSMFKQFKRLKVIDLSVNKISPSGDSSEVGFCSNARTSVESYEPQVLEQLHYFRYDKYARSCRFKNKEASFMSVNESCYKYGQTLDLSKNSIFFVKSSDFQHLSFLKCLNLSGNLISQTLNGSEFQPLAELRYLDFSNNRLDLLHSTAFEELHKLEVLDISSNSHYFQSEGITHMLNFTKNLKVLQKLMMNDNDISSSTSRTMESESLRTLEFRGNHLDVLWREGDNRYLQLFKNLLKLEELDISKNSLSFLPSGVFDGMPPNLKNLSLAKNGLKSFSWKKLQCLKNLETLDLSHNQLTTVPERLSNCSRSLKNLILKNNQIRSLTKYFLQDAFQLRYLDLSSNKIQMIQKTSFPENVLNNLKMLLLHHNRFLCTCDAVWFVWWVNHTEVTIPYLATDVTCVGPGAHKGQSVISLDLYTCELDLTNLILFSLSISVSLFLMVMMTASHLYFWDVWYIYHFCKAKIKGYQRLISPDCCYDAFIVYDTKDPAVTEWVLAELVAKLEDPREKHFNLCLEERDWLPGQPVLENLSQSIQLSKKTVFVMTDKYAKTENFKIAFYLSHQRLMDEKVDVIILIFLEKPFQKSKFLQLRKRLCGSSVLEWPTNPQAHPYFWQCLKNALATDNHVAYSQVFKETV

[7] = molecular target: T4, Toll-like receptor 8 (Homo sapiens) (UniProt Q9NR97); assay: Agonist activity at TLR8 (unknown origin)
T4 sequence (whole entry): T2 sequence (Q9NR97 whole entry)

Sequence of Voltage-gated inwardly rectifying potassium channel KCNH2 (Q12809 whole entry): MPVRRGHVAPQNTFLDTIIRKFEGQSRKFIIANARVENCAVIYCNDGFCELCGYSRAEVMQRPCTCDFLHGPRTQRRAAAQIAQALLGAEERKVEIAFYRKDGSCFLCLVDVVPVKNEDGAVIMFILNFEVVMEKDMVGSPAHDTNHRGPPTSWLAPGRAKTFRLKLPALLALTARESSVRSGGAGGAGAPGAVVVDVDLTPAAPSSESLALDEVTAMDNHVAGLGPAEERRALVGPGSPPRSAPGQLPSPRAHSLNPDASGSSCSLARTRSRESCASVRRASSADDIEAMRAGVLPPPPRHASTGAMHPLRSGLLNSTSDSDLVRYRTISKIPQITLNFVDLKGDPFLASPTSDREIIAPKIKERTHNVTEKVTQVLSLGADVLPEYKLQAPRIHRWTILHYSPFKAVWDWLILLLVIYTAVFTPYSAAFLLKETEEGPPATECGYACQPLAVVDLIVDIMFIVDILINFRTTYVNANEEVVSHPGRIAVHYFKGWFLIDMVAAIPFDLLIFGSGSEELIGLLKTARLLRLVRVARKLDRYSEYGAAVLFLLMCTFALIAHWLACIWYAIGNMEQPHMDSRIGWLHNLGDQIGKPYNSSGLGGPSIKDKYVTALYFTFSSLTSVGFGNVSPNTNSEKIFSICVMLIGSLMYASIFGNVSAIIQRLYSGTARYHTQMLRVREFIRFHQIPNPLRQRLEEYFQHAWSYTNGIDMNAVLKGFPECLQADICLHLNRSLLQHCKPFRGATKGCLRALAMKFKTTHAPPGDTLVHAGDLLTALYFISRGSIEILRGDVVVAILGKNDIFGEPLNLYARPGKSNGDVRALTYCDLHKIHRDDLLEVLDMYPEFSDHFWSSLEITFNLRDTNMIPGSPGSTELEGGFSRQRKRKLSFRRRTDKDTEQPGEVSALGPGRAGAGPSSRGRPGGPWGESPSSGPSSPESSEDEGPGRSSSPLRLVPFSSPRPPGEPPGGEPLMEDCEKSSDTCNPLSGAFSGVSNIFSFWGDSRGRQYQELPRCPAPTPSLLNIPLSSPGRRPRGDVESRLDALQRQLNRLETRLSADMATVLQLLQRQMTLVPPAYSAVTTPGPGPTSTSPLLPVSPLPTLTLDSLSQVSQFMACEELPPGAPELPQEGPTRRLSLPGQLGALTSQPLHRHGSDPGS
Sequence of Cytochrome P450 3A4 (P08684 whole entry): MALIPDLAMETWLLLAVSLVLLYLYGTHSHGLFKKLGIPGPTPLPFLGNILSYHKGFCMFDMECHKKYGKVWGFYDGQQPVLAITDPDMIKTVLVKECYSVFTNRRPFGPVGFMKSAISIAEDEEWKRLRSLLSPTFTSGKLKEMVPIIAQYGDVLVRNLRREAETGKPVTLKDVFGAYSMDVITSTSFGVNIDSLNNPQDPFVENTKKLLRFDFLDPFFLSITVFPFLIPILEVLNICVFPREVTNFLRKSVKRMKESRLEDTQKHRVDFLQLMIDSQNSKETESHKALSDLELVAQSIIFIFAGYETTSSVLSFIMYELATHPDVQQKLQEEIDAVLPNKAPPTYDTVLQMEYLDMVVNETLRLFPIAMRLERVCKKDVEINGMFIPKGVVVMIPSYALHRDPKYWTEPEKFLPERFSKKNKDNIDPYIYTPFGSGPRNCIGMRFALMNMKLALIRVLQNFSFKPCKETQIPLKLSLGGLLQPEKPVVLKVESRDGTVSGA

| SMILES | Stability [1] | Stability [3] | IC50 (in vitro) | IC50 [2] | further results |
| --- | --- | --- | --- | --- | --- |
| CCCCNc1nc(N)nc2cnn(Cc3ccc(CNCc4ccncc4)cc3OC)c12 | 1% | 3% | – | – | – |
| CCCCNc1nc(N)nc2cnn(Cc3ccc(CN4CC5CC4CN5)cc3OC)c12 (stereo not given) | 90% | 10% | – | – | – |
| CCCCNc1nc(N)nc2cnn(Cc3ccc(CN4CCCCC4)cc3OC)c12 | 33% | 2% | – | – | EC50 (Toll-like receptor 7 [4]): 0.225 µM |
| CCCCNc1nc(N)nc2cnn(Cc3ccc(CN4CCOCC4)cc3OC)c12 | 20% | 15% | – | – | – |
| CCCCNc1nc(N)nc2cnn(Cc3ccccc3OC)c12 | – | – | – | – | EC50 (Toll-like receptor 7 [6]): 0.384 µM |
| CCCCN(C)c1nc(N)nc2cnn(Cc3ccc(CNC4CCOCC4)cc3OC)c12 | 57% | 11% | > 25 µM | > 50 µM | IC50 (Toll-like receptor 7 [4]): > 5 µM |
| CCCCOc1nc(N)nc2cnn(Cc3ccc(CNC4CCOCC4)cc3OC)c12 | – | – | > 25 µM | – | IC50 (Toll-like receptor 7 [4]): > 5 µM |
| CCC[C@@H](CCO)Nc1nc(N)nc2cnn(Cc3ccc(CNC4CCOCC4)nc3)c12 | 100% | 91% | > 25 µM | > 50 µM | Activity [7]: inactive; EC50 (Toll-like receptor 7 [4]): > 5 µM |
| CCCCNc1nc(N)nc2cnn(Cc3ccc(Cn4ccnc4)cc3OC)c12 | 1% | 26% | – | – | – |
| CCCCNc1nc(N)nc2cnn(Cc3ccc(CN4CC5(CNC5)C4)cc3OC)c12 | 100% | 100% | – | – | – |
| CCCCNc1nc(N)nc2ncn(Cc3ccccc3)c12 | – | – | – | – | EC50 (Toll-like receptor 7 [6]): > 5 µM |
| CCCCNc1nc(N)nc2cnn(Cc3ccc(CN4CCNCC4)cc3OC)c12 | 83% | 60% | – | – | – |

Second part, led by results:

| Stability [1] | Stability [3] | IC50 (in vitro) | SMILES | IC50 [2] | further results |
| --- | --- | --- | --- | --- | --- |
| 90% | 77% | > 25 µM | CCC[C@@H](CO)Nc1nc(N)nc2cnn(Cc3ccc(CNC4CCOCC4)cc3OC)c12 | > 50 µM | – |
| 83% | 84% | > 25 µM | CC[C@@H](CCO)Nc1nc(N)nc2cnn(Cc3ccc(CNC4CCOCC4)cc3OC)c12 | > 50 µM | IC50 (Toll-like receptor 7 [4]): 1.25 µM |
| 51% | 55% | 7 µM | CCC[C@@H](CCO)Nc1nc(N)nc2cnn(Cc3ccc(CNC4CCOCC4)cc3OC(F)F)c12 | 30.4 µM | – |
| 70% | 30% | 24.7 µM | CCC[C@@H](C)Nc1nc(N)nc2cnn(Cc3ccc(CNC4CCOCC4)cc3OC)c12 | 30.4 µM | – |
| – | – | > 25 µM | CCC[C@@H](CCO)Nc1nc(N)nc2cnn(Cc3ccc(CNC4CCOCC4)nc3OC)c12 | – | – |
| 9% | 87% | > 25 µM | COc1cc(CNC2CCOCC2)ccc1Cn1ncc2nc(N)nc(N[C@H](CCO)C3CC3)c21 | > 50 µM | – |
| 56% | 56% | > 25 µM | CCC[C@@H](CCO)Nc1nc(N)nc2cnn(Cc3ccc(CNC4CCOCC4)c4cccnc34)c12 | > 50 µM | – |
| 93% | 91% | > 25 µM | CCC[C@@H](CCNC(C)=O)Nc1nc(N)nc2cnn(Cc3ccc(CNC4CCOCC4)cc3OC)c12 | – | – |
| 90% | 91% | > 25 µM | CCC[C@@H](CCO)Nc1nc(N)nc2cnn(Cc3ccc(CNC4CCOCC4)cc3)c12 | > 50 µM | EC50 (Toll-like receptor 7 [4]): > 5 µM |
| 81% | 87% | > 25 µM | CCC[C@@H](CCO)Nc1nc(N)nc2cnn(Cc3cnc(CNC4CCOCC4)cc3OC)c12 | > 50 µM | – |
| 89% | 100% | > 25 µM | COc1cc(CNC2CCOCC2)ccc1Cn1ncc2nc(N)nc(N[C@@H](C)CCO)c21 | > 50 µM | IC50 (Toll-like receptor 7 [4]): > 5 µM |
| 41% | 2% | 16 µM | CCCCNc1nc(N)nc2cnn(Cc3ccc(CNC4CCC4)cc3OC)c12 | 18.8 µM | EC50 (Toll-like receptor 7 [5]): 0.121 µM; IC50 (Cytochrome P450 3A4): 6.65 µM; EC50 (Toll-like receptor 8): > 5 µM |
| 66% | 91% | > 25 µM | CCC[C@@H](CCO)Nc1nc(N)nc2cnn(Cc3ccc(CNC4CCOCC4)cc3F)c12 | > 50 µM | – |
| 55% | 46% | – | CCCCNc1nc(N)nc2cnn(Cc3ccc(CNC4COC4)cc3OC)c12 | – | – |
| 80% | 63% | > 25 µM | COc1cc(CNC2CCOCC2)ccc1Cn1ncc2nc(N)nc(N[C@H](CCO)C(C)C)c21 | > 50 µM | – |
| 78% | 93% | > 25 µM | CCC[C@@H](CCO)Nc1nc(N)nc2cnn(Cc3ncc(CNC4CCOCC4)cc3OC)c12 | 6 µM | – |
| 68% | 62% | – | CCCCNc1nc(N)nc2cnn(Cc3ccc(C(=O)NC4CCOCC4)cc3OC)c12 | – | – |
| 68% | 25% | 22 µM | CCCCNc1nc(N)nc2cnn(Cc3ccc(CNC4CCOCC4)cc3OC)c12 | – | EC50 (Toll-like receptor 7 [4]): 0.453 µM |
